One experiment has as its target T1, FXa human (Homo sapiens, UniProt P00742).
T1 construct: from tissue; host or cells: human plasma
Nature of the experiment: Determination of kinetic constants for FXa human (plasma activated with RVV+CaCl2). It is filed as biochemical. The conditions noted are these: for Km: substrate 0.1-0.7 mmol/l, trisbuffer pH 7.0, I=0.25, polybrene, 37° C. Here is the method:
The kinetic data for the substrates are determined by measuring the initial velocity of hydrolysis (Vi) at different substrate concentrations (Si) and at constant enzyme concentrations (Eo). The binding constant (Km) and the maximum velocity (Vmax) are obtained in known manner from Lineweaver-Burk-plot, then the Kcat is calculated (Hemker H. C. loc. cit.)
The substrates in concentrations between 0.1-0.7 mmol/l (Si) are mixed with FXa human plasma and treated according to the method as described by Aurell; L., et al. (Perspectives in Hemostatis, Ed. Fareed J. et al, New York, Pergamon Press 1981, p. 382-388).
10 μl test plasma, control or standard and 200 μl trisbuffer solution (0.05 mol/l tris, pH 7.0, I=0.25 (NaCl)), polybrene (0.1 g/l) are mixed and incubated at 37° C. for 2-4 minutes. 200 μl substrate (37° C.) in concentrations between 0.1-0.7 mmol/l dissolved in trisbuffer solution prepared according to the above are added. The mixture is well stirred and within 30 seconds 200 μl RVV+CaCl2 (20°-25° C.) are added and the mixture is stirred. The absorbance change is measured at once in a spectrophotometer at 405 nm and 37° C.

Another experiment deals with T2, Thrombin bovine (Bos taurus, UniProt P00735).
T2 construct: Thrombin bovine (KabiVitrum) with a constant concentration E0 =1.3 nmol/l; purchased KabiVitrum
Nature of the experiment: Determination of thrombin sensitivity. Format: biochemical. The conditions noted are these: for Km: substrate 0.1-0.4 mmol/l.

A further experiment addresses FXa bovine (Bos taurus, UniProt P00743). As to the kind of experiment: Determination of the kinetic constants for FXa bovine (chromogenic/fluorogenic substrate hydrolysis).
Setting [1] is: trisbuffer pH 7.0, I=0.25, 37° C.
The mark [2] stands for this setting: Thrombin bovine E0=1.3 nmol/l, trisbuffer pH 8.3, I=0.25, 37° C.

T1 sequence (P00742 235-488 limits assumed): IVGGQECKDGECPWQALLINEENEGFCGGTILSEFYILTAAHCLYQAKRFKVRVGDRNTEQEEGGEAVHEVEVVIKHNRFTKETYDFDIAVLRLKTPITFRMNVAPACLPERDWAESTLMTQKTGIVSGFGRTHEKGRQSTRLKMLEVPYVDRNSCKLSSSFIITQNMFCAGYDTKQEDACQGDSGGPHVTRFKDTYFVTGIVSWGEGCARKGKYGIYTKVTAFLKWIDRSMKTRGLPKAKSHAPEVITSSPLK
T1 sequence (P00742 41-179 partner limits assumed): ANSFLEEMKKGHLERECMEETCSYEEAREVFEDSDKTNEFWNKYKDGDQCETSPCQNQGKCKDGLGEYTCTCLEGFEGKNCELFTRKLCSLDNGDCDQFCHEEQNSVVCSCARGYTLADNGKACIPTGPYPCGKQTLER
Chain of FXa bovine (P00743 234-492 limits assumed): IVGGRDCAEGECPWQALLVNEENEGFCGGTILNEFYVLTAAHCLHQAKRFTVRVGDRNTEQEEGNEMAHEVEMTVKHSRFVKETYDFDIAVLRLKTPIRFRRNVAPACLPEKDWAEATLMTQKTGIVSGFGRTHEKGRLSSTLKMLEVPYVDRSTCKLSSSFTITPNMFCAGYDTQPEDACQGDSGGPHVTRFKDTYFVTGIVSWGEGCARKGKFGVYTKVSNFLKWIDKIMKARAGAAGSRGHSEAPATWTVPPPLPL
Chain of FXa bovine (P00743 41-180 partner limits assumed): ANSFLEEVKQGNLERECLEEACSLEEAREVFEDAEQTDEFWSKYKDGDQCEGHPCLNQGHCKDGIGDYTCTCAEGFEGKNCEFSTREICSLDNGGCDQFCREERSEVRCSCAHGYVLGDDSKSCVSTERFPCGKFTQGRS
Experimental for FXa bovine: Enzymes and substrates are mixed in a buffer solution at -37° C. The absorbance change per minute is measured at 405 nm in a spectrophotometer (pNA-substrate) or in a spectrofluorometer at excitation wavelength 380 nm and emission wavelength 440 nm (AMC-substrate).
FXa bovine (KabiVitrum) with a constant enzyme concentration
E0 =4 nmol/l (pNA-substrate)
E0 =2 nmol/l (AMC-substrate)
and the substrate in concentrations between 0.01-0.4 mmol/l (Si) are mixed in a trisbuffer solution 0.05 mol/l, pH=8.3, I=0.25 (NaCl) at 37° C. Absorbance change per minute is measured at 405 nm in a spectrophotometer for pNA-substrate and in a spectrofluorometer at emission wavelength 440 nm for AMC-substrate, respectively.

Consider “Bz--Ile--Glu--(γ--OR)--Gly--ARg--pNA.HCl [Example S-2222]”, for which the Km turned out to be 1970 µM on FXa human; 710 µM on Thrombin bovine (setting [2]); 510 µM on FXa bovine (FXa bovine E0=4 nmol/l (pNA-substrate) or 2 nmol/l (AMC-substrate), substrate 0.01-0.4 mmol/l, trisbuffer 0.05 mol/l, pH 8.3, I=0.25, 37° C.). At FXa human (setting [1]), the Vmax was found to be 46 µmol/L/min. Moreover, at FXa human (setting [1]), the “Vmax /Km” value was determined as 0.023 min⁻¹. For the same compound, at Thrombin bovine (Kcat/Km FXa bovine divided by Kcat/Km thrombin bovine), the “ratio for the selectivity constant FXa bovine through thrombin” value is listed as 19.4. Besides, the Kcat is on record as 13 sek^-1 on Thrombin bovine (setting [2]) and 180 sek^-1 on FXa bovine (FXa bovine E0=4 nmol/l (pNA-substrate) or 2 nmol/l (AMC-substrate), trisbuffer pH 8.3, I=0.25, 37° C.). For the same compound, the “Kcat /Km” value at Thrombin bovine (Thrombin bovine, trisbuffer pH 8.3, I=0.25, 37° C.) was 0.018 1/μmol · sek. In addition, the “Kcat /Km (selectivity constant)” value at FXa bovine (FXa bovine, trisbuffer pH 8.3, I=0.25, 37° C.) is 0.35 l/μmol · sek.
As for `CCS(=O)(=O)N[C@H](CCCNC(=N)N)C(=O)NCC(=O)N[C@@H](CCCNC(=N)N)C(=O)Nc1ccc([N+](=O)[O-])cc1` [Example 4, N^α --Ets--D--Arg--Gly--Arg--pNA.2HCl], the Km at FXa human is 340 µM; on Thrombin bovine (setting [2]), 410 µM.
With `COc1ccc(COC(=O)N[C@H](CCCNC(=N)N)C(=O)NCC(=O)N[C@@H](CCCNC(=N)N)C(=O)Nc2ccc([N+](=O)[O-])cc2)cc1` [Example 9, N^α --Moz--D--Arg--Gly--Arg--pNA.2HCl], the Km on FXa human was determined as 210 µM; on Thrombin bovine (setting [2]), 73 µM.

Values taken from patent publication US4797472A, “New peptide derivatives” (KabiVitrum AB, priority 1986, dated 1989).
